Among the test systems are U-251; OVCAR-3; NCI-H522; K562; MOLT-4; OVCAR-5; 786-0; HCC 2998; UACC-62; IGROV-1; A498; OVCAR-8; SNB-75; NCI-H23; NCI-H226; SF-539; CAKI-1; HCT-15.
Holding throughout (assay): inhibition of tumour cell growth, NCI panel, 48 h

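Where inhibition never reached the appropriate level, the endpoint shown equals the highest concentration tested. Otherwise, values were interpolated linearly from a five-concentration, 48-hour dose response in 96-well plates. GI50 is the concentration that inhibits growth by half.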 Activity calls are given as the source filed them. No stated cut-off is given here; in the data, active = GI50 up to about 1.1 µM and inactive = higher.

Take `C/C(CC(=O)Nc1ccccc1C)=N/NS(=O)(=O)c1ccc(C)cc1`: the GI50 in the experiment with U-251, in the experiment on OVCAR-3, in the experiment with NCI-H522, in the experiment with K562, in the experiment on MOLT-4 and with OVCAR-5 was > 100 µM (inactive) throughout. In addition, the GI50 in the experiment with 786-0, in the experiment on HCC 2998, in the experiment on UACC-62, in the experiment with IGROV-1, in the experiment with A498 and with OVCAR-8 was > 100 µM (inactive) throughout. Further, the GI50 in the experiment on SNB-75, with NCI-H23, in the experiment on NCI-H226 and in the experiment with SF-539 was > 100 µM (inactive) throughout.

Regarding `CCCC(C)C[C@@H](C)CC(C)/C=C(\C)c1oc(=O)c(C)c(O)c1C.CC[C@@H](C)C[C@@H](C)C[C@@H](C)/C=C(\C)c1oc(=O)c(C)c(O)c1C` (some centres not stated), the GI50 in the experiment with CAKI-1 was 13.4 µM (inactive); in the experiment with U-251 it was 14.5 µM (inactive); in the experiment with OVCAR-3 it was 6.78 µM (inactive); in the experiment with NCI-H522 it was 14.8 µM (inactive); in the experiment with OVCAR-5, 6.19 µM (inactive); in the experiment on 786-0, 14.5 µM (inactive). Also, the GI50 with HCC 2998 is 12.9 µM (inactive); with OVCAR-8 it was 20.3 µM (inactive); in the experiment with SNB-75 it was 13.6 µM (inactive); in the experiment on NCI-H23, 10 µM (inactive); in the experiment with NCI-H226 it was 15.5 µM (inactive); in the experiment with SF-539, 15.4 µM (inactive).

`CC1=C(C(=O)Nc2cc(=O)n(C)c(=O)n2C)C(c2cccc([N+](=O)[O-])c2)C(C(=O)Nc2cc(=O)n(C)c(=O)n2C)=C(C)N1`: the GI50 with CAKI-1 was > 100 µM (inactive); in the experiment with U-251 it was > 100 µM (inactive); with OVCAR-3 it was > 100 µM (inactive); with NCI-H522, 44.5 µM (inactive); in the experiment on K562 it was 72.4 µM (inactive); with MOLT-4 it was 42.6 µM (inactive). Also, the GI50 was > 100 µM (inactive) in the experiment on OVCAR-5; > 100 µM (inactive) in the experiment on 786-0; 31.5 µM (inactive) with HCC 2998; > 100 µM (inactive) in the experiment on IGROV-1; 49.5 µM (inactive) in the experiment on A498; > 100 µM (inactive) in the experiment on OVCAR-8. Besides, the GI50 is 17.5 µM (inactive) in the experiment with SNB-75, > 100 µM (inactive) in the experiment on NCI-H23, > 100 µM (inactive) in the experiment on NCI-H226 and 26.7 µM (inactive) in the experiment with SF-539.

Regarding `O=C1CCC2(CC1)SCCCS2`, the GI50 was > 100 µM (inactive) in the experiment with CAKI-1; > 100 µM (inactive) in the experiment with U-251; > 100 µM (inactive) in the experiment with OVCAR-3; > 100 µM (inactive) in the experiment with NCI-H522; > 100 µM (inactive) in the experiment with K562; greater than 100 µM in the experiment on HCT-15. In addition, the GI50 in the experiment with OVCAR-5, in the experiment with 786-0, with HCC 2998, in the experiment with UACC-62, in the experiment with IGROV-1 and in the experiment on A498 was > 100 µM (inactive) throughout. For the same molecule, the GI50 is > 100 µM (inactive) in the experiment with OVCAR-8, 61.1 µM (inactive) in the experiment with SNB-75, > 100 µM (inactive) in the experiment with NCI-H23 and > 100 µM (inactive) in the experiment with NCI-H226.

For `O=C1c2ccccc2CC1C1(O)C(=O)Nc2ccccc21` (configuration not stated), the GI50 with CAKI-1 is > 100 µM (inactive); with OVCAR-3, > 100 µM (inactive); in the experiment on NCI-H522, > 100 µM (inactive); in the experiment with K562, > 100 µM (inactive); with MOLT-4, > 100 µM (inactive); with HCT-15, greater than 100 µM. The GI50 with OVCAR-5, with 786-0, in the experiment on UACC-62, with IGROV-1, in the experiment with A498 and in the experiment on OVCAR-8 was > 100 µM (inactive) in each case. The GI50 in the experiment on SNB-75 is 87.3 µM (inactive); in the experiment with NCI-H23 it was > 100 µM (inactive); in the experiment with NCI-H226, > 100 µM (inactive); with SF-539 it was > 100 µM (inactive).

On to `N#C/C(=C\c1c(O)cc(O)cc1O)C(N)=O`, for which the GI50 in the experiment on CAKI-1, with U-251, in the experiment on OVCAR-3, in the experiment with NCI-H522, in the experiment with K562 and in the experiment with MOLT-4 was > 100 µM (inactive) each time. Also, the GI50 in the experiment with HCT-15 is greater than 100 µM; with OVCAR-5, > 100 µM (inactive); with 786-0 it was > 100 µM (inactive); with HCC 2998 it was > 100 µM (inactive); in the experiment on A498, > 100 µM (inactive); with OVCAR-8, > 100 µM (inactive). Also, the GI50 in the experiment with SNB-75 was 36.2 µM (inactive); with NCI-H23, > 100 µM (inactive); with NCI-H226, > 100 µM (inactive); in the experiment on SF-539 it was > 100 µM (inactive).

Consider `O=C1N[C@H](Cc2c[nH]cn2)C(=O)N2CCC[C@@H]12`, for which the GI50 was > 100 µM (inactive) in the experiment on CAKI-1; > 100 µM (inactive) in the experiment with OVCAR-3; > 100 µM (inactive) in the experiment with NCI-H522; > 100 µM (inactive) in the experiment on K562; > 100 µM (inactive) with MOLT-4; greater than 100 µM with HCT-15. The GI50 in the experiment on OVCAR-5, with 786-0, with HCC 2998, with UACC-62, in the experiment on IGROV-1 and in the experiment with OVCAR-8 was > 100 µM (inactive) each time. In addition, the GI50 was 65.8 µM (inactive) in the experiment with SNB-75 and > 100 µM (inactive) in the experiment on NCI-H23.

With `Cc1cc(O)c2c3c1C(=O)Oc1c(CO)c(O)c(C(=O)O)c(c1O3)C=NN=Cc1c3c(c(CO)c(O)c1C(=O)O)OC(=O)c1c(C)cc(O)c(c1O3)C=NN=C2`, the GI50 in the experiment on CAKI-1 was > 100 µM (inactive); in the experiment on U-251 it was > 100 µM (inactive); with OVCAR-3, 32.7 µM (inactive); with HCT-15, greater than 100 µM; with OVCAR-5, > 100 µM (inactive); in the experiment with 786-0, > 100 µM (inactive). The GI50 in the experiment on HCC 2998, in the experiment on UACC-62, with IGROV-1, in the experiment with A498, in the experiment with OVCAR-8 and in the experiment on SNB-75 was > 100 µM (inactive) throughout. Further, the GI50 in the experiment on NCI-H23, in the experiment on NCI-H226 and in the experiment with SF-539 was > 100 µM (inactive) in each case.

With `O/N=C1/C(=C/c2ccc(Cl)c(Cl)c2)CCCC1C(NO)c1ccc(Cl)c(Cl)c1` (configuration not stated), the GI50 with CAKI-1 was 18.8 µM (inactive); with U-251 it was 17.9 µM (inactive); with OVCAR-3 it was 14.7 µM (inactive); with NCI-H522 it was 10.1 µM (inactive); with K562, 21.3 µM (inactive); in the experiment on MOLT-4, 12.5 µM (inactive). For the same molecule, the GI50 is 16.8 µM in the experiment with HCT-15; 19.5 µM (inactive) in the experiment on 786-0; 17.1 µM (inactive) with HCC 2998; 18 µM (inactive) in the experiment on UACC-62; 19.9 µM (inactive) with IGROV-1; 14.4 µM (inactive) in the experiment with A498. In addition, the GI50 in the experiment with OVCAR-8 was 18.7 µM (inactive); in the experiment on SNB-75, 16.6 µM (inactive); with NCI-H23, 17.3 µM (inactive); in the experiment on SF-539, 18.1 µM (inactive).
